Assay [1] addresses T1, rat EP1 receptor (Rattus norvegicus, UniProt P70597).
T1 sequence (P70597 1-405): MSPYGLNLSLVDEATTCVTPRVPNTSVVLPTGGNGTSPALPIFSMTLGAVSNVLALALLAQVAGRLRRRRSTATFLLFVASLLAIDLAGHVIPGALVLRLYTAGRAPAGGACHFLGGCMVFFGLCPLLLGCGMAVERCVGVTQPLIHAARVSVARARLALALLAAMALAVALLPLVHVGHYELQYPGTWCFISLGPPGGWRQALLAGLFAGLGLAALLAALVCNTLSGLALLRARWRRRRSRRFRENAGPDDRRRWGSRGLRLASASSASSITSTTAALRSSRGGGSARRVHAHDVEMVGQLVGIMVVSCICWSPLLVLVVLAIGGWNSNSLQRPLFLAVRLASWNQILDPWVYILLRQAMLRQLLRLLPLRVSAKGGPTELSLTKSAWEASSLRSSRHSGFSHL
The assay is described as follows: Receptor antagonistic activity using cells expressing an EP1 receptor (PGE2-induced intracellular Ca change, FLIPR). The format is cell-based. The conditions noted are these: HEK293 cells stably expressing rat EP1 receptors; 100 nM PGE2; Ca concentration in cells. As to the method:
1. Experiment to Measure a Receptor Antagonistic Activity Using Cells Expressing an EP1 Receptor
HEK293 cells (American Type Culture Collection) that stably expressed rat EP1 receptors were dispensed onto a 96-well poly-D-lysine-coated plate (Product Name: Biocoat, PDL96W black/clear, Nippon Becton Dickinson) to a 2×10^4 cells/well at the day before the experiment, and incubated overnight at 37° C. under 5% carbon dioxide (CO2) in a culture medium containing 10% fetal bovine serum (FBS) (Product Name: DMEM, Invitrogen Corporation). The culture medium was replaced by a loading buffer (a washing solution containing a 4 μM fluorescent indicator (Product Name: Fluo3-AM, Tong Ren Tang Technologies Co. Ltd.):a Hank's balanced salt solution)(HBSS), 20 mM 2-[4-(2-hydroxyethyl)-1-piperazinyl]ethanesulfonic acid (HEPES)-sodium hydroxide (NaOH), 2.5 mM Probenecid, 0.1% bovine serum albumin (BSA)), and left to stand at room temperature for 3 hours, and the cells were washed using a plate washer in which a washing solution had been set up (Product Name: ELx405, BIO-TEK instrument Corporation). The compound that had been preliminarily dissolved and diluted in a washing solution was added thereto, and set up in a system for measuring a calcium (Ca) concentration in a cell (Product Name: FLIPR, Molecular Devices Corporation). After 5 minutes, PGE2 was added to a final concentration of 100 nM, and the change in Ca concentrations in cells was measured. A difference between a maximum value and a minimum value in Ca concentrations in cells was determined, and kept as measurement data. With a response upon addition of 100 nM PGE2 being set at […], and a response upon addition of a buffer being set at 100%, the concentration causing 50% inhibition was determined as an IC50 value.
In the table, Pre represents Preparative Example No. as described later, and Ex represent Example No. as described later.

For assay [2], the target named is T1, rat EP1 receptor. The assay is described as follows: Receptor binding test using EP1 receptor-expressing cells (3H-PGE2 binding to membrane sample). The arrangement: expressed in transfected cells; host or cells: HEK293EBNA cells, pCEP4 vector, transient (2 days); crude membrane sample. The note with it: membrane of HEK293EBNA cells expressing rat EP1; 2.5 nM 3H-PGE2; Ki=IC50/(1+([C]/Kd)). From the text:
(2) Receptor Binding Test Using EP1 Receptor-Expressing Cells
A signal peptide (MKTIIALSYIFCLVFA: SEQ ID NO: 1) and a FLAG sequence (DYKDDDDK: SEQ ID NO: 2) were introduced at the N-terminus of a rat EP1 receptor, followed by subcloning into an expression vector (Product Name: pCEP4, Invitrogen Corporation). An HEK293EBNA cell (American Type Culture Collection) was transfected with the rat EP1 expression vector using a transfection regent (Product Name: Fugene-6, Roche-Diagnostics, K.K), and then cultured for 2 days in a medium containing 10% FBS (Product Name: DMEM, Invitrogen Corporation) at 37° C. under 5% CO2. After culturing, the cells were recovered, treated with a cell lysate (20 mM Tris(hydroxymethyl)aminomethane (Tris)buffer pH7.5, 5 mM ethylene diaminetetraacetic acid(EDTA)), and ultracentrifuged (23,000 revolution, 25 minutes×2) for a rough preparation of a membrane sample.
A reaction solution containing the prepared membrane sample (15 μg) and ^3H-PGE2 (150 μl, composition: 10 mM 2-(N-morpholino)ethanesulfonic acid (MES)/potassium hydroxide(KOH) pH6.0, 1 mM EDTA, 10 mM magnesium chloride (MgCl2), 0.02% 3-[(3-Cholamidopropyl)dimethylammonio] propanesulfonate (CHAPS)) was incubated at room temperature for 1 hour. The reaction was terminated with an ice-cooled buffer, and suction-filtered under reduced pressure to trap the bound ^3H-PGE2 to a glass fiber filter (Product Name: UNIFILTER-96, GF/B, PerkinElmer Japan Co., Ltd.), so as to measure the radioactivity of the binding with a microplate scintillation counter (Product Name: TopCount, Packard) using Microscinti (Product Name: Microscinti 20, PerkElmer Japan Co., Ltd.).
The dissociation constant (Kd) and the maximum binding (Bmax) were determined using Scatchard plot (Annals of the New York Academy of Science, US, volume 51, page 660, 1949). Nonspecific bindings were determined as bindings in the presence of an excessive amount (2.5 μM) of label-free PGE2. The assessment of inhibitory effect on ^3H-PGE2 binding by the compound was carried out by adding 2.5 nM ^3H-PGE2 and the compound.
The inhibition constant Ki(nM) for each compound was obtained using the following formula: Ki=IC50/(1+([C]/Kd))
wherein [C] represents the concentration of ^3H-PGE2 employed in a reaction system.

The term IC50 denotes the concentration at which inhibition is half-maximal. What is called Ki is a measure of affinity in units of concentration, obtained from inhibition or displacement. Higher therefore signals a looser hold on the target.

Structures are written as SMILES.

`Cc1ccc(S(=O)(=O)N(CC(=O)NCc2ccncn2)c2cccc(Cl)c2C)cc1` [Pre15]: half-maximal inhibition in assay [1] (IC50) required 12 nM.
Take `COc1ccc(CNC(=O)CN(c2cccc(Cl)c2C)S(=O)(=O)c2ccc(C)cc2)cc1` [Pre1, N^2-(3-chloro-2-methylphenyl)-N-(4-methoxybenzyl)-N^2-[(4-methylphenyl)sulfonyl] glycinamide]: the 50% inhibitory concentration (IC50) in assay [1] worked out at 16 nM. The compound also registered a Ki in assay [2] of 0.68 nM.
The compound `Cc1ccc(S(=O)(=O)N(CC(=O)NCc2cccc(C(=O)O)c2)c2cccc(Cl)c2C)cc1` [Ex7] returned an IC50 in assay [1] of 1.6 nM. The compound further returned an inhibitory constant (Ki) in assay [2] of 0.57 nM.
The like results for `CCc1c(Cl)cccc1N(CC(=O)NCc1cccc(/C=C/C(=O)O)c1)S(=O)(=O)c1ccc(C)cc1` [Ex74] were, in that order, 1 nM and 0.35 nM.
In assay [1], `CCc1c(Cl)cccc1N(CC(=O)NCc1cccc(C(=O)O)c1)S(=O)(=O)c1ccc(C)cc1` [Ex40] registered an IC50 of 0.72 nM. The same compound had an inhibition constant Ki in assay [2] of 0.33 nM.
The like results for `Cc1ccc(S(=O)(=O)N(CC(=O)NCc2cccc(OCC(=O)O)c2)c2cccc(Cl)c2C)cc1` [Ex16] were, in that order, 2.4 nM and 1 nM.
In turn, `Cc1ccc(S(=O)(=O)N(CC(=O)NCc2ccc(-n3cccn3)cc2)c2cccc(Cl)c2C)cc1` [Ex26] yielded an IC50 in assay [1] of 2.5 nM.
In assay [1], `Cc1ccc(S(=O)(=O)N(CC(=O)NCc2ccc(C(=O)NS(C)(=O)=O)cc2)c2cccc(Cl)c2C)cc1` [Ex20] displayed an IC50 of 1.4 nM. Besides, in assay [2], affinity was put at a Ki of 0.74 nM.
Consider `COc1c(Cl)cccc1N(CC(=O)NCc1cccc(C(=O)O)c1)S(=O)(=O)c1ccc(C)cc1` [Ex38], for which, in assay [1], it took 1.5 nM to reach half-maximal inhibition (IC50). The compound further came in with an inhibition constant Ki in assay [2] of 0.48 nM.
Turning to `COC(=O)c1ccc(CNC(=O)CN(c2cccc(Cl)c2C)S(=O)(=O)c2ccc(C)cc2)cc1` [Ex24], 1 nM corresponded to half-maximal inhibition in assay [1] (IC50).
